Results reported in US20160002710A1, “REPORTER PHAGE AND […] BACTERIA” (priority 2014, published 2016).
Converted amounts (≈) assume the structure as drawn.

Assays:
Type in all cases: cell-based
[1] = tested on: S. flexneri ATCC 25875; assay: Reporter phage (Shfl25875::luxAB) bioluminescence antibiotic susceptibility assay; conditions: 5 h growth with antibiotic, infection with reporter phage, read after 20 min
Protocol: (§1) Cells (5×10^5 CFU/mL) and antibiotics were prepared in cation-adjusted Mueller Hinton broth according to CLSI methodology. […] The same Shigella inoculum was grown for 5 h at 35° C. in the presence of antibiotics, infected with Shfl::luxAB, and bioluminescence assayed after 20 min.
(§2) Therefore, the ability of Shfl25875::luxAB to confer bioluminescence signal to Shigella spp. in the presence of antibiotics was compared to the standard CLSI broth microdilution method. […] Cells were incubated with a range of antibiotic concentrations in microtiter plates, incubated at 35° C., and assessed for growth (A625) after 20 h as per the CLSI protocol, or bioluminescence following infection by Shfl25875::luxAB.

[2] = tested on: E. coli ATCC 25922; assay: microbe, parasite or virus in culture; conditions: Escherichia coli, ATCC25922; cation-adjusted Mueller Hinton broth, 35° C., 20 h; within the acceptable range
Protocol: as §1

[3] = tested on: S. flexneri ATCC 25875; assay: microbe, parasite or virus in culture; conditions: Shigella flexneri, ATCC25875; growth (A625) after 20 h at 35° C.; read-out: minimum inhibitory concentration
Protocol: as §1, §2

CC1(C)S[C@@H]2[C@H](NC(=O)[C@H](N)c3ccccc3)C(=O)N2[C@H]1C(=O)O [ampicillin]
Bioluminescence at antibiotic concentrations at the minimum inhibitory concentration or higher [1]: at or close to background
MIC [2]: 2 µg/mL (≈ 5.72 µM)
MIC [3]: 1 µg/mL (≈ 2.86 µM)
